Article PMC9115112, “A2B adenosine receptor antagonists rescue lymphocyte activity in adenosine-producing patient-derived cancer models” (Journal for Immunotherapy of Cancer, 2022)

Tests used:
[1] = tested on: healthy donor T cells (PBMCs) and NK cells; test: CFSE proliferation assay with exogenous adenosine; assay type: cell-based, human; details: higher concentration further restoring proliferation, data not shown
human A2AAR = molecular target: T1, human A2AAR (Homo sapiens, UniProt P29274); test: Radioligand binding, human A2AAR ([3H]ZM241385, transfected HeLa cells); details: displacement of [3H]ZM241385, human HeLa cells, n=3, racemic mixtures; read-out: Ki hA2A
T1 construct: expressed in transfected cells; host or cells: HeLa
T1 sequence (P29274 whole entry): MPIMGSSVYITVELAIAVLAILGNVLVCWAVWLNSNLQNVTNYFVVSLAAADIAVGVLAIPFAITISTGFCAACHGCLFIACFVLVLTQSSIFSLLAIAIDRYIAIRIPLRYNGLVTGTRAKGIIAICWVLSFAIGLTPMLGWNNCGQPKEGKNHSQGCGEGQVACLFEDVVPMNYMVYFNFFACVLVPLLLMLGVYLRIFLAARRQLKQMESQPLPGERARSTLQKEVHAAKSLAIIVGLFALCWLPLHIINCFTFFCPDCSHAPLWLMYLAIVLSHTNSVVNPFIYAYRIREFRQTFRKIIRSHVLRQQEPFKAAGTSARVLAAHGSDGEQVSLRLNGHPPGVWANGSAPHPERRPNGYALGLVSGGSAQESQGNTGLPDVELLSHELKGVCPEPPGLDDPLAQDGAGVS
Description: The affinity and selectivity profiles of the ligands obtained was studied in vitro, radioligand binding assays, at the four human specific ARs subtypes, using experimental protocols previously described.[28–30] All ligands were prepared and tested as racemic mixtures. […] Non-specific binding was determined in the presence of R-PIA 10 µM for A1AR, NECA 50 µM for A2AAR, NECA 400 μΜ for A2BAR and R-PIA 100 μΜ for A3AR.

[2] = tested on: sarcoma TILs against autologous tumor cells; test: Chromium (51Cr) release cytotoxicity assay, sarcoma TILs; assay type: cell-based, human; details: synthetic ADO, 24 hours
Description: Chromium (51Cr) release cytotoxicity assay
Chromium (51Cr) release assay was used to measure the autologous TILs-mediated cytotoxicity against the established patient-derived breast and […] cell lines. Briefly, breast and sarcoma tumor cells were labelled with 51Cr (PerkinElmer) as target cells and seeded on 96-well V-bottom plate (Corning) at 5 000cells/well. Effector TILs were added at the indicated Effector: Target (E:T) ratios. The supernatants were collected carefully into LUMA plates (PerkinElmer) after 24 and 48 hours of co-culture. After drying overnight, radioactivity of the plate was read with MicroBeta2 (PerkinElmer).
Relative adenosine production assay
An ectonucleotidase CD73 assay was optimized to measure the relative ADO production based on competitive AMP blockade and presence of CD73+ cells. Day five patient-derived sarcoma spheroids were digested and split into triplicates in X-VIVO20 and 1% PS culture media with an excessive amount of AMP at 0.4mM (Sigma-Aldrich) incubated for 30 minutes.
After 1500 RPM was applied for three minutes, 25 μL supernatant were removed and mixed with 25 μL of 200 μM ATP (Sigma-Aldrich) in the same media. 25 μL of this mixture was added to a white opaque OptiPlate (PerkinElmer) containing 25 μL Cell-Titer Glo reagent (Promega, US). Relative luminescence unit (RLU) can be read on SPARK 10M plate reader with an integration time of 100ms. […]

[3] = tested on: healthy donor T cells in MPNST patient-derived sarcoma spheroid; test: Proliferation assay with CD73-expressing patient-derived sarcoma (MPNST) spheroid; assay type: cell-based, human; details: antagonist 12 µM, 3 days, endogenous adenosine, n=5 healthy donors
Description: A malignant peripheral nerve sheath tumor (MPNST) patient-derived sarcoma cell line was used to grow spheroid by seeding 1×10^4 cells per well in a 96-well ultra-low attachment plate (Thermo Fisher Scientific) with DMEM-F12 media containing 20% FBS and 1% PS for 5 days. 1×10^5 CSFE-labeled healthy PBMCs, ratio of 10:1, were added to the CD73 expressing, adenosine-producing spheroid at day five. Similar to the proliferation assay with exogenous ADO, CD3/CD28 beads at 1:4 ratio and IL-2 at 100 IU/mL were added. A2BAR antagonism treatment at 12 μM was added at the same day.
Figure 5 Rescue of lymphocyte proliferation in sarcoma spheroids by A2BAR antagonism. Relative proliferation of: (A) CD45RA- CD4 T cells, (B) CD45RA+CD4 T cells, (C) CD45RA- CD8 T cells and (D) CD45RA+ CD8 T cells after antagonist 12 µM treatment for 3 days in MPNST patient-derived sarcoma spheroid. (n=5 healthy donors) Box plots with minimum, first quartile, median, third quartile, and maximum are presented. Unpaired and non-parametric statistical analysis—Mann-Whitney test was performed against untreated control with *p<0.05, **p<0.01, ***p<0.001, and ****p<0.0001. (E) Representative CSFE dilution of CD45RA+ CD8 T cells. CD45RA expression differentiates naïve and effector T cells from central and effector memory T cells. MPNST, malignant peripheral nerve sheath tumors; UPS, undifferentiated pleomorphic sarcoma.

| Ki (human A2AAR) [nM] | Compound | Dose dependence of the proliferation rescue on T and NK cells [1] | Rescue of killing in sarcoma TILs against autologous tumor cells [2] | Rescue of naïve and effector (CD45RA+) CD8 T cell proliferation in adenosine-producing sarcoma spheroids [3] |
| --- | --- | --- | --- | --- |
| – | CC1=C(C(=O)OC(C)C)C(c2ccco2)n2c(nc3ccccc32)N1 (stereo not shown) [ISAM-140, isopropyl 4-(furan-2-yl)−2-methyl-1,4-dihydrobenzo[4 5] imidazo[1,2 a]pyrimidine-3-carboxylate] | dose-dependent | – | – |
| > 1000 | CC1=C(C(=O)OC(C)C)C(c2ccco2)n2c(nc3ccccc32)N1Cc1ccccc1F (stereo not shown) [ISAM-R56A] | – | also rescued killing | significantly rescued |
